From patent US8557797B2, “Triazolopyridine derivatives and their therapeutic use” (Chiesi Farmaceutici S.p.A., priority 2009, dated 2013)

Columns and labels:
[1] = tested on: TNFα release from LPS activated THP-1 cells or PBMC's; experiment: p38 Functional Assay (TNFα release after LPS); assay type: cell-based; settings: Homo sapiens, 1 h pre-treatment, 0.3% DMSO, read-out: EC50 (inhibition of TNFα release)
Procedure: Inhibition of cellular p38 depresses the release of TNFα, a functional response which is quantified by measurement of the amount of TNFα in the supernatants of LPS activated THP-1 cells (an immortalised monocytic cell line) or peripheral blood mononuclear cells (PBMC's) isolated from freshly drawn human blood.
Cells seeded in 96 well plates are pre-treated by the addition of p38 inhibitors for 1 h followed by addition of lipopolysaccharide (LPS) to activate cytokine production and release. The amount of TNFα released into the cell supernatants is quantified using an R&D Systems enzyme linked immunosorbant assay (ELISA) kit (product DY210) following the manufacturers instructions.
Compounds are diluted in DMSO prior to addition, the final DMSO concentration in the assay being 0.3%. The EC50 is defined as the concentration at which a given compound achieves 50% inhibition of the control.

[2] = tested on: BAL cell influx induced by tobacco smoke; experiment: Tobacco smoke induced pulmonary inflammation, mouse model of COPD inflammation; assay type: in vivo; settings: mice, intranasal, 30, 100 or 300 μg/kg, 4 days TS, BAL 24 h after final exposure (FIG. 1)
Procedure: Pre-clinical mouse model of COPD inflammation—Tobacco smoke induced pulmonary inflammation. […] In this exposure protocol, mice were exposed in groups of 5 in individual clear polycarbonate chambers (27 cm×16 cm×12 cm). The TS from the cigarettes was allowed to enter the exposure chambers at a flow rate of 100 ml/min. In order to minimise any potential problems caused by repeated exposure to a high level of TS (6 cigarettes), the exposure of the mice to TS was increased gradually over the exposure period to a maximum of 6 cigarettes. The exposure schedule used for 4 days was as follows: Bronchoalveolar lavage was performed as follows: the trachea was cannulated using a Portex nylon intravenous cannula (pink luer fitting) shortened to approximately 8 mm. […] The cell pellet was re-suspended in a known volume of PBS and total cell numbers calculated by counting a stained (Turks stain) aliquot under a microscope using a haemocytometer. […] When dried and cover-slipped, differential cells were counted using light microscopy. Up to 400 cells were counted by unbiased operator using light microscopy. […] All results are presented as individual data points for each animal and the mean value was calculated for each group. […] Percentage inhibitions were automatically calculated within the Excel spreadsheets for the cell data using the formula below: […]

p38α = target: T1, p38α (Homo sapiens, UniProt Q16539); experiment: p38 Kinase Assay (ATF-2 phosphorylation ELISA); assay type: biochemical; settings: 2 h pre-incubation, ATP 250 μM, 1% DMSO; read-out: p38α inhibition (IC50 values)
T1 construct: purchased Calbiochem 559324; host or cells: E. coli
Procedure: Human recombinant p38 enzyme expressed in E. coli and activated by incubation with MKK6 enzyme (Calbiochem #559324) is used as source of enzyme activity.
The assay is carried in high binding, clear, flat bottom 96 well assay plates which have been coated with recombinant ATF-2 (Biosource #PHF0043). Test compounds are incubated with p38 kinase for 2 h prior to initiating the kinase assay by the addition of ATP to obtain an assay concentration of 250 μM. Phosphorylation of ATF-2 is detected and quantified using an ELISA. This consists of sequential incubation in the presence of anti-phospho-ATF2, biotinylated anti-IgG and streptavidin-HRP. Incubation with an HRP chromogenic substrate (TMB) results in absorbance that is proportional to the amount of phosphorylated substrate produced. Absorbance is detected using a multiwell plate reader.
Compounds are diluted in DMSO prior to addition to assay buffer, the final DMSO concentration in the assay being 1%.
The IC50 is defined as the concentration at which a given compound achieves 50% inhibition of control.

T1 sequence (Q16539 whole entry): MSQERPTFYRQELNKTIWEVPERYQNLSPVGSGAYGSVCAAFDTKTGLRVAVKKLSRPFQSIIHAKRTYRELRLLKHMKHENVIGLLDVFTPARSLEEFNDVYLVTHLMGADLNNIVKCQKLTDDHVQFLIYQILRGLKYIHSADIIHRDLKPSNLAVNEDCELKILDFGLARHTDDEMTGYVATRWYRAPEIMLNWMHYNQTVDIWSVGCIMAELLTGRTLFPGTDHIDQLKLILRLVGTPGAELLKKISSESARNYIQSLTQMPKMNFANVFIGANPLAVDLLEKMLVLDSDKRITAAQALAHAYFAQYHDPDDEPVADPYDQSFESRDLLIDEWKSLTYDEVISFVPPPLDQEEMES

IC50 (p38α): 10 to 100 nM
SMILES: Cc1ccc(-n2nc(C(C)(C)C)cc2NC(=O)Nc2ccc(Sc3ccc4nnc(-c5cccc(OCCN6CCOCC6)c5)n4c3)cc2)cc1 [Example 10, 1-(5-tert-Butyl-2-p-tolyl-2H-pyrazol-3-yl)-3-(4-{3-[3-(2-morpholin-4-yl-ethoxy)-phenyl]-[1,2,4]triazolo[4,3-a]pyridin-6-ylsulfanyl}-phenyl)-urea]
EC50 [1]: 10 to 100 nM | BAL cell influx induced by TS [2]: significantly inhibited
